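Following 48 hours of exposure in 96-well plates, responses at five concentrations were used to interpolate endpoints linearly. TGI: total growth inhibition.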

What all share (experiment): NCI anticancer screen, dose series, 48 h
For experiment [1], the system named is MALME-3M melanoma.
In experiment [2] the test system is CCRF-CEM leukemia.
The subject of experiment [3] is HCT-15 colon.
The test system of experiment [4] is NCI-H522 lung.
Experiment [5] has as its system KM20L2 colon.
The subject of experiment [6] is HCT-116 colon.
Experiment [7] concerns SK-MEL-5 melanoma.
Experiment [8] deals with A549 NSCLC.
In experiment [9] the test system is SK-MEL-2 melanoma.
The test system of experiment [10] is 786-0 renal.
Experiment [11] deals with UO-31 renal.
Experiment [12] deals with HOP-92 NSCLC.
Experiment [13] has as its system HCC-2998 colon.
Experiment [14] deals with OVCAR-4 ovarian.
For experiment [15], the system named is SK-OV-3 ovarian.
The test system of experiment [16] is RXF 393 renal.
The test system of experiment [17] is MCF7 breast.
Experiment [18] relates to CAKI-1 renal.
Experiment [19] concerns DU-145 prostate.
The test system of experiment [20] is MDA-N.

For `C=CCCCN1CCCCC1=S`, the TGI in [1], in experiment [2], in [3], in experiment [4], in experiment [5] and in [6] was more than 100 µM throughout. In addition, the TGI in experiment [7], in experiment [8], in experiment [9], in experiment [10], in experiment [11] and in [12] was more than 100 µM in each case. The TGI in experiment [13], in experiment [14], in experiment [15] and in experiment [16] was more than 100 µM throughout.
Take `CN1N=C2c3ccccc3OC(c3ccccc3)[C@H]2C1c1ccccc1` (some centres not stated): the TGI in [1] was 78.3 µM; in experiment [2] it was more than 100 µM; in [3] it was more than 100 µM; in experiment [4] it was more than 100 µM; in experiment [5] it was more than 100 µM; in [6], more than 100 µM. Further, the TGI in experiment [8], in experiment [9], in experiment [10], in experiment [11], in experiment [12] and in experiment [13] was more than 100 µM in each case. The TGI was more than 100 µM in experiment [14], more than 100 µM in [15] and 88.5 µM in experiment [16].
As for `CSc1nc(-c2ccccc2)nc(C(C#N)C#N)n1`, the TGI in experiment [1], in experiment [2], in [3], in experiment [17], in experiment [4] and in experiment [6] was more than 100 µM throughout. For the same compound, the TGI in experiment [18], in experiment [19], in experiment [20], in experiment [7], in experiment [8] and in experiment [9] was more than 100 µM each time. For the same compound, the TGI in [10], in experiment [11], in [12], in experiment [13], in experiment [14] and in experiment [15] was more than 100 µM throughout. For the same compound, the TGI in experiment [16] was more than 100 µM.
Consider `COc1ccc(-c2cc(=O)c3cc(Cl)ccc3[nH]2)cc1`, for which the TGI in experiment [1], in [2], in experiment [4], in experiment [5], in experiment [6] and in [7] was more than 100 µM each time. Further, the TGI in [10], in [11], in experiment [12], in [13], in experiment [14] and in [15] was more than 100 µM each time. In [16], this compound displayed a TGI of more than 100 µM.
For the compound `Cn1ccc(=NS(=O)(=O)c2ccccc2)cc1`, the TGI in experiment [1], in experiment [2], in experiment [4], in experiment [5], in [6] and in experiment [7] was more than 100 µM in each case. The TGI in experiment [8], in experiment [9], in [10], in [11], in experiment [12] and in experiment [13] was more than 100 µM throughout. Moreover, the TGI in experiment [15] and in experiment [16] was more than 100 µM in each case.
On to `COc1ccc2nc3cc([N+](=O)[O-])ccc3c(Nc3ccc(S(=O)(=O)Nc4ncccn4)cc3)c2c1`, for which the TGI in [1], in experiment [2], in experiment [3], in experiment [17], in [4] and in experiment [6] was more than 100 µM each time. Also, the TGI was more than 100 µM in experiment [18]; more than 100 µM in experiment [19]; more than 100 µM in experiment [20]; more than 100 µM in [7]; more than 100 µM in experiment [8]; more than 86.3 µM in [9]. Moreover, the TGI in experiment [10], in [11], in experiment [12], in [13], in [14] and in [15] was more than 100 µM throughout. In experiment [16], this compound showed a TGI of more than 100 µM.
For the compound `COc1cccc(C=O)c1[O-].COc1cccc(C=O)c1[O-].[Zn+2]`, the TGI in [1], in experiment [2], in experiment [3], in experiment [4], in [5] and in experiment [6] was more than 100 µM in each case. In addition, the TGI in [7] was more than 100 µM; in [8], more than 100 µM; in [9], more than 100 µM; in experiment [10], more than 100 µM; in [11], 90.7 µM; in experiment [12] it was 83.6 µM. The TGI in experiment [13], in [14], in [15] and in experiment [16] was more than 100 µM each time.
In the case of `COC(=O)[C@@H]1C[C@]2(Br)c3ccccc3N(S(=O)(=O)c3ccccc3)[C@@H]2N1C(=O)OC`, the TGI in experiment [1], in experiment [2], in experiment [3], in experiment [17], in experiment [4] and in experiment [6] was more than 100 µM each time. Also, the TGI in experiment [18], in [19], in experiment [20], in [7], in [8] and in [9] was more than 100 µM in each case. Further, the TGI in experiment [10], in experiment [11], in experiment [12], in [13], in [14] and in [15] was more than 100 µM throughout. For the same compound, in experiment [16], the TGI was 61.8 µM.
Take `COc1ccccc1/C=N/Nc1nnc2c3ccccc3c3ncccc3c2n1`: the TGI in experiment [1] was more than 100 µM; in [2], 78 µM; in experiment [3], more than 100 µM; in experiment [17], more than 100 µM; in [4], more than 100 µM; in [6], more than 100 µM. Also, the TGI in experiment [18], in experiment [19], in [20], in experiment [7], in experiment [8] and in experiment [9] was more than 100 µM throughout. The TGI in experiment [10] was 90.6 µM; in experiment [11] it was more than 100 µM; in experiment [12], 52.8 µM; in [13] it was more than 100 µM; in experiment [14], 60.1 µM; in experiment [15], more than 100 µM. Further, the TGI in [16] worked out at 55.6 µM.
In the case of `Cc1cc2c(=O)c(C)n[nH]c2c(C#N)c1C`, the TGI in [1], in experiment [2], in experiment [3], in [5], in experiment [6] and in experiment [8] was more than 100 µM each time. The TGI in experiment [10], in [11], in experiment [12], in [13], in experiment [15] and in [16] was more than 100 µM each time.
As for `COC(=O)c1sc2c(=O)c(C(=O)OC)c(C(=O)OC)sc2c(=O)c1C(=O)OC`, the TGI in experiment [1] is more than 100 µM; in experiment [2], more than 100 µM; in experiment [3], more than 100 µM; in [17], more than 100 µM; in experiment [4] it was 65.2 µM; in [6], more than 100 µM. For the same compound, the TGI in experiment [18], in [19], in [20], in experiment [7], in experiment [8] and in [9] was more than 100 µM in each case. For the same compound, the TGI in experiment [10], in experiment [11], in [12], in experiment [13], in experiment [14] and in experiment [15] was more than 100 µM each time. In addition, in experiment [16], the TGI is more than 100 µM.
For `Nc1ncnc2c1ncn2[C@@H]1O[C@H](COP(=O)(O)OP(=O)(O)OC[C@H]2O[C@@H](OCCCO)[C@H](O)[C@@H]2O)[C@@H](O)[C@H]1O`, the TGI in [1], in [2], in experiment [3], in experiment [17], in experiment [4] and in experiment [6] was more than 100 µM each time. In addition, the TGI in [18], in experiment [19], in experiment [20], in experiment [7], in experiment [8] and in experiment [9] was more than 100 µM throughout. In addition, the TGI in [10], in [11], in [12], in experiment [13], in experiment [14] and in [15] was more than 100 µM in each case. For the same compound, the TGI in experiment [16] is more than 100 µM.
Regarding `C/C=C\C(CC(=O)NCCC1CN(C(=O)OCc2ccccc2)c2ccccc21)CC(=O)OC` (configuration not stated), the TGI in experiment [1], in experiment [2], in experiment [3], in experiment [17], in [4] and in experiment [6] was more than 100 µM in each case. The TGI in [18], in [19], in [20], in experiment [7], in [8] and in [9] was more than 100 µM each time. The TGI in experiment [10], in [11], in experiment [12], in experiment [13], in [14] and in experiment [15] was more than 100 µM throughout. This compound gave a TGI in experiment [16] of more than 100 µM.
With `COC(=O)/C=C\C(C#N)(C#N)N=Cc1cccs1`, the TGI in experiment [1] was 6.61 µM; in experiment [2] it was 3.58 µM; in experiment [3], 5.69 µM; in [17], 4.06 µM; in experiment [4] it was 2.24 µM; in experiment [6], more than 50.2 µM. Also, the TGI in experiment [18] was 3.77 µM; in experiment [19] it was 24.3 µM; in experiment [20], 49.3 µM; in experiment [7], 11.2 µM; in experiment [8], more than 56 µM; in experiment [9] it was 34.3 µM. The TGI in experiment [10] was more than 46.3 µM; in experiment [11], 5.99 µM; in experiment [12] it was 3.75 µM; in experiment [13], 33.8 µM; in experiment [14] it was 17 µM; in experiment [15], 42.3 µM. In addition, in experiment [16], the TGI worked out at 5.51 µM.
As to `CCCCCCCC(=O)OC[C@H](C[As](=O)(O)O)OC(=O)CCCCCCC`, the TGI in experiment [1] was found to be 25.3 µM; in experiment [2] it was 8.8 µM; in experiment [3], 23.5 µM; in experiment [4], 4.07 µM; in [5], 30.2 µM; in experiment [6], 19.2 µM. Further, the TGI in experiment [7] was found to be 26.8 µM; in [8], 18.7 µM; in experiment [10], 26.7 µM; in experiment [11], 16.5 µM; in experiment [12], 31.1 µM; in [13], 27.8 µM. The TGI came out at 29.1 µM in experiment [14], 29 µM in experiment [15] and 16 µM in experiment [16].
Turning to `Cc1cccc2c(NCCN(C)C)c3cccc(C(=O)NCCN(C)C)c3nc12`, the TGI in experiment [1] came out at 1.62 µM; in [2] it was 0.813 µM; in [3], 13.9 µM; in experiment [17], 2.85 µM; in [4], 0.114 µM; in experiment [6] it was 4.87 µM. In addition, the TGI came out at 4.92 µM in [18]; 3.61 µM in experiment [19]; 0.9 µM in [20]; 0.962 µM in [7]; 29.2 µM in [8]; 1.13 µM in experiment [9]. The TGI is 3.38 µM in experiment [10]; 1.63 µM in experiment [11]; 1.46 µM in [12]; 1.33 µM in [13]; more than 100 µM in experiment [14]; 27.1 µM in [15]. In [16], this compound returned a TGI of 2.54 µM.

The record behind these values is PubChem BioAssay (NCI).
